Assay results from article PMC2909581 (Clinical cancer research : an official journal of the …, 2010).
Where two headings read alike, the source gives them in different places. One block for each molecule: values may come before it.

What was measured:
clinical = assay type: in vivo, human; conditions: for Cmax on days 1 and 15 compared: concurrent sorafenib
[1] = Sorafenib and N-oxide metabolite plasma pharmacokinetics; assay type: in vivo, human
Hsp90 = test: Western blot of PBMC lysates: Hsp90 levels; assay type: in vivo, human
[2] = in vivo
renal cancer = conditions: no prior VEGF inhibitor therapy; cited from earlier work
Hsp70 = test: Western blot of PBMC lysates: Hsp70 levels; assay type: in vivo, human
melanoma = conditions: single agent; cited from earlier work
kidney cancer = conditions: no prior VEGF inhibitor therapy, single agent; cited from earlier work
Tumor Hsp90 = conditions: cited from earlier work
[3] = Phase I toxicity assessment
[4] = Maximum, Day 1, in combination with tanespimycin
[5] = Maximum, Day −1, sorafenib given alone
[6] = Mean, Day 1, in combination with tanespimycin, steady-state, eleven patients
[7] = Mean, Day −1, sorafenib given alone, steady-state, eleven patients
[8] = Minimum, Day 1, in combination with tanespimycin
[9] = Minimum, Day −1, sorafenib given alone
[10] = number of patients, tanespimycin 300 mg/m^2 (n = 3) + sorafenib
[11] = number of patients, tanespimycin 350 mg/m^2 (n = 7) + sorafenib
[12] = number of patients, tanespimycin 400 mg/m^2 (n = 11) + sorafenib
[13] = number of patients, tanespimycin 450 mg/m^2 (n = 6) + sorafenib

Cmax on days 1 and 15 compared (clinical): similar
Compound: CO[C@H]1/C=C/C=C(\C)C(=O)NC2=CC(=O)C(N)=C(C[C@@H](C)C[C@H](OC)[C@H](O)[C@@H](C)/C=C(\C)[C@@H]1OC(N)=O)C2=O [17-AG]
Cmax (end of infusion) and AUC versus tanespimycin dose (clinical; in vivo, iv): increased with increasing tanespimycin dose

AUClast [1, 4]: 40.5 µM·h
Cmax [1, 4]: 7.3 µM
Tmax [1, 4]: 10.0 h
AUClast [1, 5]: 45.7 µM·h
Cmax [1, 5]: 6.4 µM
Tmax [1, 5]: 10.0 h
AUClast [1, 6]: 16.1 µM·h
Cmax [1, 6]: 2.6 µM
Tmax [1, 6]: 8.5 h
AUClast [1, 7]: 15.5 µM·h
Cmax [1, 7]: 2 µM
AUClast [1, 8]: 5.5 µM·h
Cmax [1, 8]: 0.7 µM
AUClast [1, 9]: 3.2 µM·h
Cmax [1, 9]: 0.5 µM
Tmax [1, 9]: 1.0 h
Compound: CNC(=O)c1cc(Oc2ccc(NC(=O)Nc3ccc(Cl)c(C(F)(F)F)c3)cc2)cc[n+]1[O-] [N-oxide sorafenib]

AUClast [1, 4]: 146.8 µM·h
Cmax [1, 4]: 26.6 µM
Tmax [1, 4]: 10.0 h
AUClast [1, 5]: 181.2 µM·h
Cmax [1, 5]: 22.5 µM
Tmax [1, 5]: 10.0 h
AUClast [1, 8]: 46.7 µM·h
Cmax [1, 8]: 6.6 µM
Tmax [1, 8]: 1.0 h
AUClast [1, 9]: 44.3 µM·h
Cmax [1, 9]: 5.8 µM
Tmax [1, 9]: 1.0 h
AUC ([1]; human, plasma, po): 90.7 µM·h
Tmax ([1]; human, plasma, po, 400 mg): 1 to 10 h
mean steady-state trough levels ([1]; plasma, sorafenib 400 mg twice daily): 8.0 µM
time of chronic treatment until plasma concentration reached the steady-state ([1]; sorafenib 400 mg twice daily): 7 days
effect of coadministration of 17-AAG on systemic exposure ([1]; sorafenib 400 mg twice daily with 17-AAG): did not significantly alter
patients requiring dose modifications ([2]; human): 3 patients
patients with treatment interruptions ([2]; human): 5 patients
Compound: CNC(=O)c1cc(Oc2ccc(NC(=O)Nc3ccc(Cl)c(C(F)(F)F)c3)cc2)ccn1 [sorafenib]
effect on Hsp90 levels (Hsp90; sorafenib therapy): not affected
predominant toxicities attributed [2]: hand-foot syndrome and diarrhea
response rate (renal cancer): 10%

Compound: C=CCNC1=C2C[C@@H](C)C[C@H](OC)[C@H](O)[C@@H](C)/C=C(\C)[C@H](OC(N)=O)[C@@H](OC)/C=C\C=C(/C)C(=O)NC(=CC1=O)C2=O [tanespimycin, 17-demethoxy-allylaminogeldanamycin]
Cmax on days 1 and 15 compared (clinical): similar
half-life (clinical; human, plasma, iv): 3.6 h
Cmax (end of infusion) and AUC versus tanespimycin dose (clinical; intravenous infusion 300-450 mg/m^2): increased with increasing tanespimycin dose
clearance (Mean ± SD) (clinical; intravenous infusion, range 4.8 to 32.9 L/h/m^2): 15.0 ± 7.9 L/h/m^2
patient samples with decrease in Hsp90 levels (Hsp90; after tanespimycin therapy (on sorafenib)): 6 of the 14
patients with increase in Hsp70 level among those showing clinical benefit (Hsp70; after tanespimycin therapy): 8 of the 10
samples with Hsp70 induction (Hsp70; after treatment with tanespimycin (on sorafenib)): 11 of 14
response in phase II trial (melanoma): no objective responses or disease stabilization
response in phase II trial (kidney cancer): no objective responses
higher binding affinity of tumor Hsp90 (multi-chaperone complexes) (Tumor Hsp90): 100 fold
patients with treatment interruptions ([3]; human, in vivo): 2 patients
recommended phase II dose ([3]; in combination with sorafenib, intravenous, days 1, 8 and 15 every 28 days): 400 mg/m^2
Diarrhea Grade1 [3, 10]: 1
Diarrhea Grade2 [3, 10]: 1
Diarrhea Grade3 [3, 10]: 0
Diarrhea Grade4 [3, 10]: 0
Fatigue Grade1 [3, 10]: 3
Fatigue Grade2 [3, 10]: 0
Fatigue Grade3 [3, 10]: 0
Fatigue Grade4 [3, 10]: 0
Hand-Foot syndrome Grade1 [3, 10]: 1
Hand-Foot syndrome Grade2 [3, 10]: 0
Hand-Foot syndrome Grade3 [3, 10]: 0
Hand-Foot syndrome Grade4 [3, 10]: 0
Headache Grade1 [3, 10]: 1
Headache Grade2 [3, 10]: 0
Headache Grade3 [3, 10]: 0
Headache Grade4 [3, 10]: 0
Liver function abnormality Grade1 [3, 10]: 0
Liver function abnormality Grade2 [3, 10]: 1
Liver function abnormality Grade3 [3, 10]: 0
Liver function abnormality Grade4 [3, 10]: 0
Nausea Grade1 [3, 10]: 1
Nausea Grade2 [3, 10]: 0
Nausea Grade3 [3, 10]: 0
Nausea Grade4 [3, 10]: 0
Other toxicity Grade1 [3, 10]: 0
Other toxicity Grade2 [3, 10]: 3
Other toxicity Grade3 [3, 10]: 0
Other toxicity Grade4 [3, 10]: 0
Bleeding Grade1 [3, 11]: 1
Bleeding Grade2 [3, 11]: 1
Bleeding Grade3 [3, 11]: 0
Bleeding Grade4 [3, 11]: 0
Creatinine Grade1 [3, 11]: 1
Creatinine Grade2 [3, 11]: 1
Creatinine Grade3 [3, 11]: 0
Creatinine Grade4 [3, 11]: 0
Diarrhea Grade1 [3, 11]: 3
Diarrhea Grade2 [3, 11]: 1
Diarrhea Grade3 [3, 11]: 1
Diarrhea Grade4 [3, 11]: 0
Emesis Grade1 [3, 11]: 2
Emesis Grade2 [3, 11]: 3
Emesis Grade3 [3, 11]: 1
Emesis Grade4 [3, 11]: 0
Fatigue Grade1 [3, 11]: 2
Fatigue Grade2 [3, 11]: 0
Fatigue Grade3 [3, 11]: 0
Fatigue Grade4 [3, 11]: 0
Hand-Foot syndrome Grade1 [3, 11]: 0
Hand-Foot syndrome Grade2 [3, 11]: 2
Hand-Foot syndrome Grade3 [3, 11]: 0
Hand-Foot syndrome Grade4 [3, 11]: 0
Headache Grade1 [3, 11]: 1
Headache Grade2 [3, 11]: 1
Headache Grade3 [3, 11]: 0
Headache Grade4 [3, 11]: 0
Hemoglobin Grade1 [3, 11]: 1
Hemoglobin Grade2 [3, 11]: 0
Hemoglobin Grade3 [3, 11]: 0
Hemoglobin Grade4 [3, 11]: 0
Liver function abnormality Grade1 [3, 11]: 2
Liver function abnormality Grade2 [3, 11]: 0
Liver function abnormality Grade3 [3, 11]: 0
Liver function abnormality Grade4 [3, 11]: 0
Myalgias Grade1 [3, 11]: 1
Myalgias Grade2 [3, 11]: 0
Myalgias Grade3 [3, 11]: 0
Myalgias Grade4 [3, 11]: 0
Nausea Grade1 [3, 11]: 3
Nausea Grade2 [3, 11]: 2
Nausea Grade3 [3, 11]: 0
Nausea Grade4 [3, 11]: 0
Other toxicity Grade1 [3, 11]: 5
Other toxicity Grade2 [3, 11]: 1
Other toxicity Grade3 [3, 11]: 1
Other toxicity Grade4 [3, 11]: 0
Platelets Grade1 [3, 11]: 1
Platelets Grade2 [3, 11]: 0
Platelets Grade3 [3, 11]: 0
Platelets Grade4 [3, 11]: 0
Creatinine Grade1 [3, 12]: 0
Creatinine Grade2 [3, 12]: 1
Creatinine Grade3 [3, 12]: 0
Creatinine Grade4 [3, 12]: 0
Diarrhea Grade1 [3, 12]: 1
Diarrhea Grade2 [3, 12]: 1
Diarrhea Grade3 [3, 12]: 0
Diarrhea Grade4 [3, 12]: 0
Dyspnea Grade1 [3, 12]: 0
Dyspnea Grade2 [3, 12]: 0
Dyspnea Grade3 [3, 12]: 1
Dyspnea Grade4 [3, 12]: 1
Emesis Grade2 [3, 12]: 0
Emesis Grade3 [3, 12]: 0
Emesis Grade4 [3, 12]: 0
Fatigue Grade2 [3, 12]: 2
Fatigue Grade3 [3, 12]: 1
Fatigue Grade4 [3, 12]: 0
Hand-Foot syndrome Grade1 [3, 12]: 0
Hand-Foot syndrome Grade2 [3, 12]: 3
Hand-Foot syndrome Grade3 [3, 12]: 2
Hand-Foot syndrome Grade4 [3, 12]: 0
Headache Grade1 [3, 12]: 1
Headache Grade2 [3, 12]: 0
Headache Grade3 [3, 12]: 0
Headache Grade4 [3, 12]: 0
Hemoglobin Grade1 [3, 12]: 2
Hemoglobin Grade2 [3, 12]: 1
Hemoglobin Grade3 [3, 12]: 0
Hemoglobin Grade4 [3, 12]: 0
Infection Grade1 [3, 12]: 0
Infection Grade2 [3, 12]: 1
Infection Grade3 [3, 12]: 0
Infection Grade4 [3, 12]: 0
Liver function abnormality Grade1 [3, 12]: 1
Liver function abnormality Grade2 [3, 12]: 0
Liver function abnormality Grade3 [3, 12]: 0
Liver function abnormality Grade4 [3, 12]: 0
Myalgias Grade1 [3, 12]: 1
Myalgias Grade2 [3, 12]: 0
Myalgias Grade3 [3, 12]: 0
Myalgias Grade4 [3, 12]: 0
Nausea Grade1 [3, 12]: 6
Nausea Grade2 [3, 12]: 1
Nausea Grade3 [3, 12]: 1
Nausea Grade4 [3, 12]: 0
Neutropenia Grade1 [3, 12]: 0
Neutropenia Grade2 [3, 12]: 0
Neutropenia Grade3 [3, 12]: 1
Neutropenia Grade4 [3, 12]: 0
Other toxicity Grade1 [3, 12]: 3
Other toxicity Grade2 [3, 12]: 3
Other toxicity Grade3 [3, 12]: 2
Other toxicity Grade4 [3, 12]: 0
Platelets Grade1 [3, 12]: 2
Platelets Grade2 [3, 12]: 0
Platelets Grade3 [3, 12]: 0
Platelets Grade4 [3, 12]: 0
Abdominal pain Grade1 [3, 13]: 2
Abdominal pain Grade2 [3, 13]: 0
Abdominal pain Grade3 [3, 13]: 1
Abdominal pain Grade4 [3, 13]: 0
Diarrhea Grade1 [3, 13]: 2
Diarrhea Grade2 [3, 13]: 0
Diarrhea Grade3 [3, 13]: 1
Diarrhea Grade4 [3, 13]: 0
Emesis Grade1 [3, 13]: 1
Emesis Grade2 [3, 13]: 0
Emesis Grade3 [3, 13]: 0
Emesis Grade4 [3, 13]: 0
Fatigue Grade1 [3, 13]: 4
Fatigue Grade2 [3, 13]: 1
Fatigue Grade3 [3, 13]: 0
Fatigue Grade4 [3, 13]: 0
Hand-Foot syndrome Grade1 [3, 13]: 1
Hand-Foot syndrome Grade2 [3, 13]: 1
Hand-Foot syndrome Grade3 [3, 13]: 2
Hand-Foot syndrome Grade4 [3, 13]: 0
Headache Grade1 [3, 13]: 2
Headache Grade2 [3, 13]: 0
Headache Grade3 [3, 13]: 0
Headache Grade4 [3, 13]: 0
Hemoglobin Grade1 [3, 13]: 1
Hemoglobin Grade2 [3, 13]: 0
Hemoglobin Grade3 [3, 13]: 0
Hemoglobin Grade4 [3, 13]: 0
Hypertension Grade1 [3, 13]: 0
Hypertension Grade2 [3, 13]: 1
Hypertension Grade3 [3, 13]: 0
Hypertension Grade4 [3, 13]: 0
Infection Grade1 [3, 13]: 0
Infection Grade2 [3, 13]: 0
Infection Grade3 [3, 13]: 1
Infection Grade4 [3, 13]: 0
Liver function abnormality Grade1 [3, 13]: 0
Liver function abnormality Grade2 [3, 13]: 0
Liver function abnormality Grade3 [3, 13]: 0
Liver function abnormality Grade4 [3, 13]: 1
Myalgias Grade1 [3, 13]: 1
Myalgias Grade2 [3, 13]: 0
Myalgias Grade3 [3, 13]: 0
Myalgias Grade4 [3, 13]: 0
Nausea Grade1 [3, 13]: 4
Nausea Grade2 [3, 13]: 0
Nausea Grade3 [3, 13]: 0
Nausea Grade4 [3, 13]: 0
Other toxicity Grade1 [3, 13]: 3
Other toxicity Grade2 [3, 13]: 0
Other toxicity Grade3 [3, 13]: 1
Other toxicity Grade4 [3, 13]: 0
Platelets Grade1 [3, 13]: 0
Platelets Grade2 [3, 13]: 0
Platelets Grade3 [3, 13]: 1
Platelets Grade4 [3, 13]: 0
patients requiring dose modifications ([3]; sorafenib to 400 mg once daily, tanespimycin to one dose level lower): 4 patients
